Measured values taken from US5618675A, “Methods and compositions for detecting lipopolysaccharides using CAP18 fragments” (Panorama Research, Inc., dated 1997).
Where two headings read alike, the source gives them in different places.

Key:
Pseudomonas apacia = assay: Bacterial proliferation, 3H-thymidine incorporation; assay type: cell-based
Method: (§1) Bacteria were grown in trypticase broth overnight.
(§2) To corroborate the anti-bacterial activity shown in the CFU assays, inhibition of proliferation of bacteria was tested directly using a ^3 H-thymidine incorporation assay. […] In summary although there is some strain to strain variation in the IC50, all of the Gram-negativestrains tested in two different types of assays were sensitive to these anti-microbial peptides.

Pseudomonas aeruginosa [1] = assay: as above; assay type: cell-based
Method: as §1, §2

Klebsiella pneumoniae = assay: as above; assay type: cell-based
Method: as §1, §2

Streptococcus pneumoniae = assay: as above; assay type: cell-based
Method: as §1, §2

[2] = system: Staphylococcus aureus, coagulase positive; assay: as above; assay type: cell-based
Method: as §1, §2

Streptococcus pyogenes = assay: as above; assay type: cell-based
Method: as §1, §2

E. coli = assay: Antibacterial CFU assay; settings: read-out: IC50, inhibition of CFU; FIG. 6I
human monocytes = assay: TNF release from LPS and IFNγ stimulated monocytes; assay type: cell-based
[3] = system: E. coli 09:K39 K^+ strain; assay: Antibacterial CFU assay; settings: FIG. 6H
Human plasma [4] = assay: Prothrombin time (PT); assay type: biochemical; settings: for inhibition of prothrombin time (PT), words: FIG. 14A
Method: (§3) Clotting method: Human plasma (Ortho plasma control, Ortho Diagnostic Co.). ATPP reagent (Organotechnika, Tokyo, Japan). Standard tissue factor, rabbit brain thromboplastin (Simplastin, ONO Pharmaceutical, Tokyo, Japan). Purified human factor VII, factor X, factor Xa (Sigma Chemical Co., St. Louis, Mo.). Russell Viper venom (RVV) and Echis carinatus venom (ECV, Sigma Co.).
(§4) Instrumentation: Clotting assays were carried out using a Fibrometer (BioQuest Division, Becton Dickinson; Cokeysville, […]., USA).
Human plasma (100 μl) was incubated with 100 μl of each peptide at 37° C. for 3 min., then 100 μl of tissue factor (250 μg/ml) CaCl2 was added and clotting time was measured.

[5] = system: methicillin-resistant Staphylococcus aureus; assay: Antibacterial CFU assay; settings: for IC50: read-out: IC50, inhibition of CFU
[6] = system: two strains of Mycobacterium avium; assay: Antimicrobial activity; assay type: cell-based; settings: range 0-20 μg/ml
Human plasma [7] = assay: Activated partial thromboplastin time (APTT); assay type: biochemical
Method: as §3, §4
Human plasma (100 μl), 100 μl of APTT reagent and 100 μl of peptide was incubated at 37° C. for 5 min after which CaCl2 was added and clotting time measured.

Salmonella typhimurium = assay: Antibacterial CFU assay; settings: read-out: anti-bacterial IC50 (CFU); FIG. 6D
Pseudomonas aeruginosa [8] = assay: Antibacterial CFU assay; settings: for IC50: read-out: anti-bacterial IC50 (CFU)
[9] = system: Salmonella minnesota R595 LPS; assay: Inhibition of RNIP-mediated hemagglutination by LPS; assay type: binding; settings: #36-1 at 16 μg/ml, RNIP (#197) at 25 μg/ml preincubated with LPS 30 minutes
Method: (§5) For hemagglutination assays, erythrocytes were sensitized with LPS as follows. One ml of 1% erythrocyte suspension (human 0 type, C3H/HeN mouse or sheep) was mixed with 0.2 ml of LPS solution and incubated at 37° C. for 30 min, followed by washing with phosphate buffered saline (PBS), and then the concentration of suspension was adjusted to 1.0%. In the case of S-LPS, the solution was heated at 100° C. for 1 hour before sensitization of erythrocytes. […] Activity of CAP was expressed as a minimum agglutinating concentration (MAC) of CAP. According to the method of Kirikae et al. (1986) Microbiol. Immunol. 30:269-274, 50 μl of 2-fold serial dilution of Re-LPS was added to 50 μl of 1.0% rabbit erythrocyte suspension, and incubated at 37° C. for 3, hour. Minimum agglutinating concentration of Re-LPS was expressed as 1 HA unit.
(§6) Another series of experiments was performed to determine if the #36-1 and #197 (RNIP) peptides were capable of binding to LPS from various species of Gram-negative bacteria. For these experiments, sheep red blood cells were sensitized with Salmonella minnesota Re-LPS. Peptides #36-1 and #197 (RNIP) were preincubated with various preparations of LPS. Both peptides bind to a diverse group of lipopolysaccharides.
(§7) °Peptide #361 (16 μg/ml) and RNIP (#197) (25 μg/ml) were
(§8) preincubated with each LPS preparation at 370 for 30 minutes, and each
(§9) reaction mixture was added to sheep erythrocytes sensitized with RELPS.

[10] = system: Pseudomonas aeruginosa F-D Type I LPS; assay: as above; assay type: binding; settings: #36-1 at 16 μg/ml, RNIP (#197) at 25 μg/ml preincubated with LPS 30 minutes
Method: as §5, §6, §7, §8, §9

[11] = system: Klebsiella pneumoniae LPS; assay: as above; assay type: binding; settings: #36-1 at 16 μg/ml, RNIP (#197) at 25 μg/ml preincubated with LPS 30 minutes
Method: as §5, §6, §7, §8, §9

E. coli 0111:B4 LPS = assay: as above; assay type: binding; settings: #36-1 at 16 μg/ml, RNIP (#197) at 25 μg/ml preincubated with LPS 30 minutes
Method: as §5, §6, §7, §8, §9

E. coli J5 LPS = assay: as above; assay type: binding; settings: #36-1 at 16 μg/ml, RNIP (#197) at 25 μg/ml preincubated with LPS 30 minutes
Method: as §5, §6, §7, §8, §9

E. coli 0127:B8 LPS = assay: as above; assay type: binding; settings: #36-1 at 16 μg/ml, RNIP (#197) at 25 μg/ml preincubated with LPS 30 minutes
Method: as §5, §6, §7, §8, §9

E. coli 055:B5 LPS = assay: as above; assay type: binding; settings: #36-1 at 16 μg/ml, RNIP (#197) at 25 μg/ml preincubated with LPS 30 minutes
Method: as §5, §6, §7, §8, §9

[12] = RNIP 6 μg/ml (so in the source)

RNIP: reactive nitrogen inhibitory protein, amino acids 135-171 of SEQ ID NO:4 (rabbit CAP18 C-terminus); purified from granulocytes or synthetic (#197) (GLRKRLRKFRNKIKEKLKKIGQKIQGLLPKLAPRTDY)
Percent inhibition of proliferation (Pseudomonas apacia; RNIP 1.25 μg/ml): 80%
Percent inhibition of proliferation (Pseudomonas apacia; RNIP 2.5 μg/ml): 99%
Percent inhibition of proliferation (Pseudomonas apacia; RNIP 5.0 μg/ml): 99%
Percent inhibition of proliferation (Pseudomonas apacia; [12]): 81%
Percent inhibition of proliferation (Pseudomonas aeruginosa [1]; RNIP 1.25 μg/ml): 82%
Percent inhibition of proliferation (Pseudomonas aeruginosa [1]; RNIP 2.5 μg/ml): 96%
Percent inhibition of proliferation (Pseudomonas aeruginosa [1]; RNIP 5.0 μg/ml): 99%
Percent inhibition of proliferation (Pseudomonas aeruginosa [1]; [12]): 75%
Percent inhibition of proliferation (Klebsiella pneumoniae; RNIP 1.25 μg/ml): 14%
Percent inhibition of proliferation (Klebsiella pneumoniae; RNIP 2.5 μg/ml): 17%
Percent inhibition of proliferation (Klebsiella pneumoniae; RNIP 5.0 μg/ml): 60%
Percent inhibition of proliferation (Klebsiella pneumoniae; [12]): 4%
Percent inhibition of proliferation (Streptococcus pneumoniae; RNIP 1.25 μg/ml): 47%
Percent inhibition of proliferation (Streptococcus pneumoniae; RNIP 2.5 μg/ml): 68%
Percent inhibition of proliferation (Streptococcus pneumoniae; RNIP 5.0 μg/ml): 93%
Percent inhibition of proliferation (Streptococcus pneumoniae; [12]): 31%
Percent inhibition of proliferation ([2]; RNIP 1.25 μg/ml): 57%
Percent inhibition of proliferation ([2]; RNIP 2.5 μg/ml): 72%
Percent inhibition of proliferation ([2]; RNIP 5.0 μg/ml): 83%
Percent inhibition of proliferation [2, 12]: 23%
Percent inhibition of proliferation (Streptococcus pyogenes; RNIP 1.25 μg/ml): 79%
Percent inhibition of proliferation (Streptococcus pyogenes; RNIP 2.5 μg/ml): 90%
Percent inhibition of proliferation (Streptococcus pyogenes; RNIP 5.0 μg/ml): 96%
Percent inhibition of proliferation (Streptococcus pyogenes; [12]): 74%
IC50 (E. coli): 80 nM
TNF (human monocytes; Human IFNγ (100 U), (1:1), stimulus alone 2.0): 0.27 ng/mL
TNF (human monocytes; Human IFNγ (100 U), (1:10), stimulus alone 2.0): 0.35 ng/mL
TNF (human monocytes; Human IFNγ (100 U), (1:100), stimulus alone 2.0): 0.35 ng/mL
TNF (human monocytes; LPS (10 ng/ml), (1:1), stimulus alone 1.0): 0.12 ng/mL
TNF (human monocytes; LPS (10 ng/ml), (1:10), stimulus alone 1.0): 0.34 ng/mL
TNF (human monocytes; LPS (10 ng/ml), (1:100), stimulus alone 1.0): 0.23 ng/mL
anti-bacterial IC50 [3]: 0.14 µg/mL
IC50 ([3]; read-out: anti-bacterial IC50): 20 nM
IC50 (Human plasma [4]): 300 nM
IC50, Prothrombin time (Human plasma [4]): 1.9 µg/mL
inhibition of prothrombin time (PT), words (Human plasma [4]): inhibited
IC50, inhibition of CFU [5]: 1 µg/mL
IC50 [5]: 160 nM
activity versus two strains of Mycobacterium avium [6]: inactive
IC50, Activate Partial Thromboplastin time (Human plasma [7]): 3.2 µg/mL
IC50 (Salmonella typhimurium): 220 to 280 nM
anti-bacterial IC50 (CFU) (Pseudomonas aeruginosa [8]; FIG. 6E): < 250 µg/mL
IC50 (Pseudomonas aeruginosa [8]): < 40 nM
MIC (minimal inhibitory concentration of LPS) [9]: 62.5 µg/mL
MIC (minimal inhibitory concentration of LPS) [10]: 15.6 µg/mL
MIC (minimal inhibitory concentration of LPS) [11]: 62.5 µg/mL
MIC (minimal inhibitory concentration of LPS) (E. coli 0111:B4 LPS): 31.3 µg/mL
MIC (minimal inhibitory concentration of LPS) (E. coli J5 LPS): 15.6 µg/mL
MIC (minimal inhibitory concentration of LPS) (E. coli 0127:B8 LPS): 62.5 µg/mL
MIC (minimal inhibitory concentration of LPS) (E. coli 055:B5 LPS): 62.5 µg/mL

36-1: synthetic rabbit RNIP-derived fragment, amino acids 135-166 of SEQ ID NO:4 (GLRKRLRKFRNKIKEKLKKIGQKIQGLLPKLA)
IC50, Prothrombin time (Human plasma [4]): 2.0 µg/mL
inhibition of prothrombin time (PT), words (Human plasma [4]): inhibited
IC50, inhibition of CFU [5]: 0.72 µg/mL
IC50 [5]: 130 nM
activity versus two strains of Mycobacterium avium [6]: inactive
IC50, Activate Partial Thromboplastin time (Human plasma [7]): 3.8 µg/mL
IC50 (Human plasma [7]; read-out: IC50, Activate Partial Thromboplastin time): 700 nM
IC50 (Salmonella typhimurium): 220 to 280 nM
anti-bacterial IC50 (CFU) (Pseudomonas aeruginosa [8]): < 0.25 µg/mL
IC50 (Pseudomonas aeruginosa [8]): < 50 nM
MIC (minimal inhibitory concentration of LPS) [9]: 15.6 µg/mL
MIC (minimal inhibitory concentration of LPS) [10]: 3.9 µg/mL
MIC (minimal inhibitory concentration of LPS) [11]: 31.3 µg/mL
MIC (minimal inhibitory concentration of LPS) (E. coli 0111:B4 LPS): 15.6 µg/mL
MIC (minimal inhibitory concentration of LPS) (E. coli J5 LPS): 7.8 µg/mL
MIC (minimal inhibitory concentration of LPS) (E. coli 0127:B8 LPS): 15.6 µg/mL
MIC (minimal inhibitory concentration of LPS) (E. coli 055:B5 LPS): 15.6 µg/mL
